Assay: Henry solubility constant Hcp at 298.15 K (mol/(m3 Pa))
Conditions: reference: Copolovici and Niinemets (2015)

| SMILES | Henry solubility constant Hcp |
| --- | --- |
| CC(=O)O[C@H]1C[C@H]2CC[C@]1(C)C2(C)C [bornyl acetate] | 0.00038 |
| C=C1[C@H]2C[C@H]3[C@@H](C(C)C)CC[C@]1(C)[C@H]3C2 [isosativene] | 0.00039 |
| C=CC(C)(O)CC/C=C(\C)CCC=C(C)C (stereo not drawn) [nerolidol] | 0.00032 |
| C=C(C)C1CCC2=CCCC(C)C2(C)C1 (stereo not drawn) [valencene] | 0.00032 |
| CC1=CCC23C[C@H]1C(C)(C)[C@H]2CC[C@@H]3C [α-cedrene] | 0.00028 |
| C=C/C(C)=C/C/C=C(\C)CCC=C(C)C [α-farnesene] | 0.00034 |
| C/C1=C\CC/C(C)=C/CC(C)(C)/C=C/C1 [α-humulene] | 0.00029 |
| CC1=CCC2C3C1C2(C)CCCC3(C)C (stereo not drawn) [α-longipinene] | 0.00034 |
| CC1=CCCC2(C)C3CCC12CC3(C)C (stereo not drawn) [α-neoclovene] | 0.00029 |
| C=C1CC/C=C(\C)CC[C@H]2[C@H]1CC2(C)C [β-caryophyllene] | 0.00037 |
| C=C1CCCC2(C)C3CCC12CC3(C)C (stereo not drawn) [β-neoclovene] | 0.00029 |
| C=C(C)[C@H]1C=C2[C@H](C)CC[C@@H]2[C@H](C)CC1 [γ-gurjunene] | 0.00033 |
| CC1C=CCC2(C)C3CCC12CC3(C)C (stereo not drawn) [γ-neoclovene] | 0.00029 |

From Sander's compilation of Henry's law constants (doi:10.1016/j.chemosphere.2015.07.075)
